Patent US12622911B2, “Methods and compositions for the treatment of pulmonary fibrosis using volasertib” (Children's Hospital Medical Center, priority 2021, dated 2026)

Key:
[1] = system: IPF fibroblasts; assay: CDK4 gene expression in IPF fibroblasts by RT-PCR; type: cell-based, human; settings: vehicle or volasertib for 16 hours, FIG. 20
[2] = H&E stainings for toxicity in volasertib-treated TGFα mice; type: in vivo; settings: at the doses tested (30 mg/kg QD, five days), data not shown
Procedure: (§1) Pharmacological inhibition of PLK1 attenuates the WT1-MYCN-PLK1 axis. […] To determine in vivo therapeutic effects of volasertib, TGFα mice were treated simultaneously with volasertib (30 mg/kg; QD) and Dox for five days, a period that leads to activation of WT1, MYCN and PLK1 in fibroblasts. […] Together, in vivo studies have established that inhibiting PLK1 is sufficient to attenuate the WT1-MYCN-PLK1 axis involved in fibroblast activation and pulmonary fibrosis.

[3] = system: WT1-MYCN-PLK1 axis in IPF fibroblasts; assay: PLK1, MYCN and WT1 protein levels in IPF fibroblast lysates by western blot; type: cell-based, human; settings: volasertib 1 μM for 48 hours, western blot normalized to GAPDH, FIG. 17
Procedure: FIG. 17. Volasertib treatment attenuates the WT1-MYCN-PLK1 axis in IPF fibroblasts. IPF fibroblasts were treated with vehicle or volasertib (1 μM) for 48 hours and measured PLK1, MYCN and WT1 protein levels in cell lysates using western blots and normalized to GAPDH. *P<0.05.
as §1

[4] = system: TGFα-induced pulmonary fibrosis; assay: TGFα-induced pulmonary fibrosis in TGFα mice on Dox, lung gene expression; type: in vivo; settings: volasertib 30 mg/kg QD with Dox for five days
Excerpt: FIG. 18. In vivo inhibition of PLK1 with volasertib attenuates ECM gene expression during TGFα-induced pulmonary fibrosis.
FIG. 19. In vivo inhibition of PLK1 with volasertib attenuates MYCN and PLK1 during TGFα induced pulmonary fibrosis.
FIG. 21. In vivo inhibition with volasertib attenuates ECM gene expression during TGFα-induced pulmonary fibrosis. *P<0.05.
as §1

[5] = molecular target: PLK1 (Homo sapiens, UniProt P53350); settings: cited from earlier work
Sequence of PLK1 (P53350 whole entry, species assumed): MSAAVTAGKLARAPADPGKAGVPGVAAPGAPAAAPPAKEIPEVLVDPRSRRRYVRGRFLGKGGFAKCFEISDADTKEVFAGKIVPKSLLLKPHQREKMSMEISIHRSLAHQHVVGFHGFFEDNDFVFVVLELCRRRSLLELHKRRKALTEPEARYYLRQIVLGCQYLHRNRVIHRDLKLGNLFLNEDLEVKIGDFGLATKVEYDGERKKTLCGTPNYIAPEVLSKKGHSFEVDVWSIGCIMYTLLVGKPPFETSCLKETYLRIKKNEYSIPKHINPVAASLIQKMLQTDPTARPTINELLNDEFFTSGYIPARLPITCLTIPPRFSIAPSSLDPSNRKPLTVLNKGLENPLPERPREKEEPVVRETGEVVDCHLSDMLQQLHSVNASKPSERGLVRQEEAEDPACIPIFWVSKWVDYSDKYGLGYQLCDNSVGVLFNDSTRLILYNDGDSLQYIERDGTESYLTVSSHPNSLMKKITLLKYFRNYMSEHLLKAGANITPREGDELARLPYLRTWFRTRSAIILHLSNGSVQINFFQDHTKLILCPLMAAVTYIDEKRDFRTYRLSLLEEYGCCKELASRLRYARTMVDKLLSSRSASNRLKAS

[6] = system: severe fibrotic lung disease; assay: Therapeutic efficacy against severe fibrotic lung disease in two alternative mouse models (TGFα transgenic, repeated bleomycin); type: in vivo; settings: compared to FDA-approved nintedanib therapy
Excerpt: WT1-driven anti-apoptotic genes (BCL3, BCL2L1, etc.), MYCN, and PLK1 were previously unknown to have a role in the pathogenesis of lung scarring, in fibroproliferation, FMT, survival, and ECM production. […] A novel clinical application for volasertib in the area of pulmonary fibrosis may include volasertib therapy to prevent progression or reverse established fibrotic lung disease. Applicant's studies utilize a novel transgenic mouse model in which the pro-fibrotic growth factor TGFα is selectively and temporally overexpressed in the lung epithelium, resulting in progressive subpleural scarring, similar to the pattern seen in human IPF, and an alternative mouse model of fibrosis using repeated doses of bleomycin. Applicant's data provide compelling support that inhibiting the MYCN-PLK1 axis may be effective in arresting fibrotic lung remodeling, and may be used in patients with pulmonary fibrosis.

[7] = system: IPF fibroblasts; assay: ECM-associated gene transcripts in IPF fibroblasts by RT-PCR; type: cell-based, human; settings: vehicle or volasertib for 16 hours, FIG. 16
Procedure: FIG. 16. Inhibition of PLK1 using volasertib attenuates ECM gene expression. IPF fibroblasts were treated with vehicle or volasertib for 16 hours and ECM-associated gene transcripts Col1α, Col3α1, FN1, and αSMA) were measured using RT-PCR. *p<0.05.
as §1

For `CC[C@@H]1C(=O)N(C)c2cnc(Nc3ccc(C(=O)N[C@H]4CC[C@H](N5CCN(CC6CC6)CC5)CC4)cc3OC)nc2N1C(C)C` [volasertib, N-[trans-4-[4-(cyclopropylmethyl)-1-piperazinyl]cyclohexyl]-4-[[(7R)-7-ethyl-5,6,7,8-tetrahydro-5-methyl-8-(1-methylethyl)-6-oxo-2-pteridinyl]amino]-3-methoxy-benzamide], which CDK4 gene expression [1] is on record?
Its CDK4 gene expression is “attenuates CDK4 gene expression”.

And the “toxicity by H&E stainings” value [2]?
Its value is “no toxicity”.

And the “MYCN, WT1 and PLK1 levels” value [3]?
The value was “sufficient to attenuate MYCN, WT1 and PLK1 levels”.

What about the “MYCN and PLK1 levels in lungs” value ([4]; FIG. 19) of the same molecule?
Its value is “able to attenuate both MYCN and PLK1 levels”.

And the “ECM gene expression including Col1α1, Col3a1, and FN1” value ([4]; vs vehicle-treated fibrosis controls, FIG. 18)?
The value was “attenuated ECM gene expression”.

And the “binds and inhibits PLK1” value [5]?
Its value is “at nanomolar doses”.

And the “therapeutic efficacy against severe fibrotic lung disease” value [6]?
The value was “demonstrated therapeutic efficacy”.

And the “ECM gene expression (Col1α, Col3α1, FN1, αSMA transcripts)” value [7]?
The value was “sufficient to attenuate ECM gene expression”.
